± gives the expanded uncertainty stated by the source.
Key:
[1] = Crystal; DTA
[2] = Molar enthalpy of transition or fusion; conditions: Crystal; DSC
[3] = molar heat capacity at constant pressure; conditions: 101.33 kPa, Crystal

ON=Cc1ccccn1 [2-pyridinealdoxime]
Conditions | Molar enthalpy of transition or fusion [kcal/mol] | Normal melting temperature [°C]
[1] | – | 113.08 ± 0.5
[2] | 4.78 ± 0.143 | –

[3]
Conditions | molar heat capacity at constant pressure [J/K/mol]
80.46 K | 51.68 ± 0.57
84.39 K | 53.78 ± 0.59
87.27 K | 55.38 ± 0.6
90.22 K | 57.07 ± 1
93.26 K | 58.78 ± 1
96.22 K | 60.42 ± 1
99.1 K | 61.8 ± 1
102.07 K | 63.16 ± 1.1
105.13 K | 64.65 ± 1.1
108.12 K | 65.95 ± 1.1
111.05 K | 67.4 ± 1.1
113.93 K | 68.69 ± 1.1
116.9 K | 69.94 ± 1.1
119.96 K | 71.33 ± 1.1
122.97 K | 72.93 ± 1.1
125.94 K | 74.14 ± 1.1
128.85 K | 75.41 ± 1.1
131.74 K | 76.56 ± 1.1
134.71 K | 77.89 ± 1.1
137.77 K | 79.05 ± 1.1
140.8 K | 80.49 ± 1.1
143.79 K | 81.65 ± 1.1
146.74 K | 82.72 ± 1.1
149.66 K | 83.99 ± 1.1
152.56 K | 85.27 ± 1.1
155.54 K | 86.71 ± 1.1
158.61 K | 87.83 ± 1.2
161.66 K | 88.91 ± 1.2
164.67 K | 90.3 ± 1.2
167.66 K | 91.7 ± 1.2
170.63 K | 92.91 ± 1.2
173.58 K | 93.88 ± 1.2
176.5 K | 95.23 ± 1.2
179.4 K | 96.67 ± 1.2
182.38 K | 97.92 ± 1.2
185.45 K | 99.23 ± 1.2
188.5 K | 100.67 ± 1.2
191.52 K | 101.97 ± 1.2
194.53 K | 103.16 ± 1.2
197.5 K | 104.64 ± 1.2
200.47 K | 106.06 ± 1.2
203.41 K | 107 ± 1.2
206.33 K | 108.59 ± 1.2
209.23 K | 109.82 ± 1.2
212.22 K | 111.35 ± 1.2
215.29 K | 112.9 ± 1.3
218.35 K | 113.97 ± 1.3
221.38 K | 115.37 ± 1.3
224.38 K | 117.31 ± 1.3
227.37 K | 118.7 ± 1.3
230.3 K | 120 ± 1.3
233.32 K | 121.77 ± 1.3
236.35 K | 123.52 ± 1.3
239.26 K | 124.25 ± 1.3
242.25 K | 125.83 ± 1.3
245.32 K | 127.09 ± 1.3
248.39 K | 128.4 ± 1.3
251.44 K | 129.85 ± 1.3
254.47 K | 130.36 ± 1.3
257.5 K | 131.52 ± 1.3
260.5 K | 132.74 ± 1.3
263.49 K | 134.49 ± 1.3
266.46 K | 136.14 ± 1.3
269.41 K | 137.72 ± 1.4
272.35 K | 139.5 ± 1.4
275.26 K | 140.58 ± 1.4
278.17 K | 142.55 ± 1.4
281.06 K | 143.7 ± 1.4
284.01 K | 145.45 ± 1.4
287.04 K | 147.06 ± 1.4
290.04 K | 148.68 ± 1.4
293.01 K | 149.59 ± 1.4
295.98 K | 150.99 ± 1.4
298.93 K | 152.1 ± 1.4
301.87 K | 153.86 ± 1.4
304.78 K | 154.72 ± 1.4
307.69 K | 155.91 ± 1.4
310.57 K | 157.91 ± 1.4
313.44 K | 159.33 ± 1.4
316.29 K | 160.28 ± 1.4
319.11 K | 161.83 ± 1.4
321.92 K | 163.28 ± 1.5
324.8 K | 164.64 ± 1.5
327.74 K | 165.88 ± 1.5
330.66 K | 167.18 ± 1.5
333.57 K | 168.11 ± 1.5
336.45 K | 169.62 ± 1.5
339.31 K | 171.01 ± 1.5
342.16 K | 172.57 ± 1.5
344.98 K | 173.51 ± 1.5
347.78 K | 174.14 ± 1.5
350.55 K | 175.82 ± 1.5
353.29 K | 176.47 ± 1.5
355.96 K | 177.08 ± 1.5
358.4 K | 178.59 ± 1.5
360.61 K | 179.15 ± 1.5
363.31 K | 180.38 ± 1.5
365.84 K | 181.56 ± 1.5
367.88 K | 182.97 ± 1.5
370.49 K | 183.67 ± 1.5
372.97 K | 184.42 ± 1.5
